Experimental data from paper PMC5736207 (PLoS ONE, 2017).
Each block holds one molecule with its values, some of them ahead of it.

What was measured:
[1] = target: T1, PMM1 (phosphomannomutase1) (Homo sapiens, UniProt Q92871); test: thermal shift assay, Sypro Orange; format: binding; conditions: 0-1 mM Glc-1,6-P2; MgCl2 1 mM, pH 7.5
T1 construct: recombinant, E. coli BL21(DE3), purified as in earlier work (DEAE, butyl Sepharose); dimer; no tag mentioned
T1 sequence (Q92871 2-262): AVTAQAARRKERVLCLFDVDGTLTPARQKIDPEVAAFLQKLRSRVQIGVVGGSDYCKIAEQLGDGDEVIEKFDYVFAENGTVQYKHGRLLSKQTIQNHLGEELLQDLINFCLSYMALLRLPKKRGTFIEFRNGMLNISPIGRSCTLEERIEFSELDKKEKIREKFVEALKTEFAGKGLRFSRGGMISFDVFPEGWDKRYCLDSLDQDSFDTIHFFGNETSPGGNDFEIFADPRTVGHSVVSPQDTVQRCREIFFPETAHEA

[2] = target: T2, PMM2 (phosphomannomutase2) (Homo sapiens, UniProt O15305); test: thermal shift assay, Sypro Orange; format: binding; conditions: 0-1 mM Glc-1,6-P2; MgCl2 1 mM, pH 7.5
T2 construct: recombinant, E. coli BL21(DE3), purified as in earlier work; no tag mentioned
T2 sequence (O15305 2-246): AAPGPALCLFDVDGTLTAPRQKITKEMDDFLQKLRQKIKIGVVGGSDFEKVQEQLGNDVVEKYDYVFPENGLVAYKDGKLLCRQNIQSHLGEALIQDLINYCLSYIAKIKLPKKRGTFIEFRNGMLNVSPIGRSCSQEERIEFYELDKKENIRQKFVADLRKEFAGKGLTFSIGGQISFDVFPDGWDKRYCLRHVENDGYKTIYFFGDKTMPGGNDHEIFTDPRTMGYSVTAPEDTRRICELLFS

[3] = target: T2, PMM2 (phosphomannomutase2); test: coupled NADPH assay of phosphoglucomutase activity; format: biochemical; conditions: 27 μM Glc-1,6-P2; MgCl2 5 mM, pH 7.5, 32°C
[4] = target: T1, PMM1 (phosphomannomutase1); test: coupled NADPH assays of phosphoglucomutase and Glc-1,6-P2 phosphatase activity; format: biochemical; conditions: PGM: 40 μM Glc-1-P, 27 μM Glc-1,6-P2, phosphatase: 0.145 mM Glc-1,6-P2

Tm [2]: The bis-phosphate hexose binds PMM2
SMILES: O=P(O)(O)OC[C@H]1O[C@H](OP(=O)(O)O)[C@H](O)[C@@H](O)[C@@H]1O [Glc-1,6-P2]
Tm [1]: effect of Glc-1,6-P2 on the melting temperature of PMM1 is seen only at very high concentrations

SMILES: O=P(O)(O)O[C@H]1O[C@H](CO)[C@@H](O)[C@H](O)[C@H]1O [Glc-1-P]
Km [3]: 8.2 ± 0.7 µM

SMILES: O=P(O)(O)C(Cl)(Cl)P(=O)(O)O [clodronate, (Dichloro-phosphono-methyl)phosphonic acid]
activity at 2.8 mM clodronate [4]: clodronate as a novel specific inhibitor of PMM1 that decreases both PGM and Glc-1,6-P2-ase activities
